Measured values reported in patent US20260335298A1, “PHARMACEUTICAL COMBINATION CONTAINING DONEPEZIL AND RIVASTIGMINE FOR PREVENTING, ALLEVIATING OR TREATING DEMENTIA OR COGNITIVE IMPAIRMENT, AND PREPARATION METHOD THEREFOR” (G2GBIO, INC., priority 2022, published 2026).

Assays:
AChE = settings: patients taking donepezil in a long-term; cited from earlier work
AChE mRNA (APP-H4 cells) = test: AChE mRNA expression in APP-H4 cell line (qRT-PCR, FIGS. 5 and 6); format: cell-based, human; settings: 24 h
Text: An APP-H4 cell line is known as a dementia model cell line in which an abnormal segment of Amyloid Precursor Protein (APP) is increased by β-secretase and Alzheimer's disease and hyperphosphorylation of a Tau protein are induced by introducing a Swedish mutation of APP into human neuroglioblastoma H4 cells. In order to re-verify the effect of combined administration of the donepezil and the rivastigmine on the AChE mRNA expression and the drug combination ratio confirmed through a previous study, APP-H4 cells were treated with the donepezil and the rivastigmine alone or in combination as active ingredients, and the AChE gene expression was analyzed.
Specifically, the APP-H4 cell line was cultured in DMEM including 10% fetal bovine serum and gentamycine. Gene expression comparative analysis was performed by treating cells with donepezil 50 (19 μg/ml) μM alone or with donepezil 50 μM and rivastigmine 1 or 5 (1.25 μg/ml) μM as a final concentration in combination and performing qRT-PCR as in the previous experiment method (primers are shown in Table 4 below).
APP-H4 cells were treated with the donepezil and the rivastigmine alone or in combination and cultured for 24 hours, and then the AChE mRNA expression level was measured by qRT-PCR method.

[1] = system: AChE mRNA (SH-SY5Y cells); test: AChE mRNA expression in SH-SY5Y cell line (qRT-PCR, FIGS. 2 to 4); format: cell-based, human
Method: Specifically, the SH-SY5Y cell line was cultured in a 6-well plate (6×10^5/well) using high-glucose Dulbecco's modified Eagle medium (DMEM) added with 10% fetal bovine serum and penicillin-streptomycin. SH-SY5Y cells were treated with the donepezil at final concentrations of 10, 20, 30, 40 (15.2 μg/ml) μM, or the rivastigmine at 0.01, 0.1, 0.5, 1, 5 (1.25 μg/ml) μM and cultured for 24 hours, and then, a total RNA was extracted from each cell using TRIzol, and cDNA was synthesized using a SuperScriptIII cDNA synthesis kit. Quantitative real-time PCR (qRT-PCR) was performed using the synthesized cDNA and primers and SYBR Green in Table 3 below using QuantStudio 3. In order to confirm amplification and accumulation of a target gene in real time, the qRT-PCR was performed under a condition that a cycle of 95° C. for 15 seconds and 60° C. for 1 minute was reacted 40 times after an initial denaturation reaction was performed at 50° C. for 2 minutes and 95° C. for 10 minutes.
A gene expression level amplified by the Comparative Ct Method which is one of methods for quantifying a specific gene expression level was calculated, and analysis results are shown in FIGS. 2 to 4.
[Relational Expression of AChE mRNA Expression Level Analysis for Each Sample]
ΔCt value=Ct value of AChE in each sample−Ct value of reference gene (GAPDH) in the sample.
(Here, Ct refers to a cycle number in which amplification begins to increase clearly during a PCR process.)
Specifically, the SH-SY5Y cell line was cultured in a 6-well plate (6×10^5/well) using DMEM added with 10% fetal bovine serum and penicillin-streptomycin. Gene expression comparative analysis was performed by treating the SH-SY5Y cells with donepezil alone or with donepezil and rivastigmine in combination and performing qRT-PCR as in the previous experiment method.
Specifically, the gene expression comparative analysis was performed by treating the SH-SY5Y cells with donepezil 20 μM alone and with donepezil 20 μM and rivastigmine 0.1, 0.5, 1, and 5 μM as a final concentration in combination and performing qRT-PCR as in the previous experiment method.

COc1cc2c(cc1OC)C(=O)C(CC1CCN(Cc3ccccc3)CC1)C2 (stereo not shown) [donepezil]
AChE activity and quantity (AChE): increases | AChE expression (AChE mRNA (APP-H4 cells); 50 μM donepezil, FIG. 6): increased | AChE mRNA expression ([1]; 5 μM (1.9 μg/ml) donepezil alone, FIG. 3): increased | AChE mRNA expression ([1]; donepezil alone, beyond 20 μM (30, 40 μM), 24 h, FIG. 2): no difference | AChE mRNA expression ([1]; donepezil alone, up to 20 μM, 24 h, FIG. 2): dependently increased

CCN(C)C(=O)Oc1cccc([C@H](C)N(C)C)c1 [rivastigmine]
AChE mRNA expression (AChE mRNA (APP-H4 cells); rivastigmine alone, 0.5, 1, or 10 μM, FIG. 5): no effect | AChE mRNA expression ([1]; rivastigmine alone, 0.01 to 5 μM, 24 h, FIG. 2): no statistically significant change was observed
